Blank lines part the entries; values can stand above or below the compound they belong to. Activity calls are given as the source filed them. The calls are words filed in the database; no cut-off is given here.
Experiments:
[1] = tested on: HT-1080; assay: Cytotoxicity against human HT1080 cells; format: functional, cell-based
[2] = tested on: HT-1080; assay: Reduction of MMP9 mRNA level in human HT1080 cells at 1 uM after 24 hrs by RT-PCR analysis relative to control; format: functional
[3] = target: 72 kDa type IV collagenase (Homo sapiens) (UniProt P08253); assay: Inhibition of MMP2 activity in human HT1080 cells at 1 uM after 24 hrs; format: cell-based; settings: HT-1080
[4] = target: Matrix metalloproteinase-9 (Homo sapiens) (UniProt P14780); assay: Inhibition of MMP9 activity in human HT1080 cells at 1 uM after 24 hrs; format: cell-based; settings: HT-1080
[5] = tested on: HT-1080; assay: Antiinvasive activity in human HT1080 cells assessed as reduction of cell number at 1 uM after 22 hrs by matrigel invasion assay; format: functional; design: scale not given: the % may be the effect or the level left
[6] = (§1) Toxicity in human HT1080 cells assessed as reduction of cell growth at 1 uM after 24 hrs; format: cell-based, HT-1080; settings: HT1080 cells, read-out: Activity
[7] = tested on: HT-1080; assay: Reduction of MMP2 mRNA level in human HT1080 cells at 1 uM after 24 hrs by RT-PCR analysis relative to control; format: functional, cell-based
[8] = tested on: HT-1080; assay: Induction of RECK mRNA expression in human HT1080 cells at 1 uM after 24 hrs by RT-PCR analysis relative to control; format: functional
[9] = tested on: HT-1080; assay: Antiinvasive activity in human HT1080 cells at 30 uM; format: functional
[10] = Cytotoxicity against human HuCCT1 cells; format: functional, cell-based; settings: HuCCT-1
[11] = tested on: HT-1080; assay: Reduction of MMP2 level in human HT1080 cells after 24 to 72 hrs by gelatin zymography analysis; format: functional, cell-based
[12] = tested on: HT-1080; assay: Reduction of proMMP2 level in human HT1080 cells after 24 to 72 hrs by gelatin zymography analysis; format: functional, cell-based
[13] = tested on: HT-1080; assay: Reduction of proMMP9 level in human HT1080 cells after 24 to 72 hrs by gelatin zymography analysis; format: functional, cell-based
[14] = tested on: HT-1080; assay: Reduction of MMP9 level in human HT1080 cells after 24 to 72 hrs by gelatin zymography analysis; format: functional, cell-based
[15] = tested on: HT-1080; assay: Induction of apoptosis in human HT1080 cells assessed as increase in caspase-3 activity at 1 uM relative to control; format: functional, cell-based
[16] = tested on: HT-1080; assay: Induction of apoptosis in human HT1080 cells assessed as increase in caspase-3 activity at 10 uM relative to control; format: functional
[17] = tested on: HT-1080; assay: Cell cycle arrest in human HT1080 cells assessed as accumulation at S phase after 72 hrs using propidium iodide staining by FACS analysis; format: functional, cell-based
[18] = tested on: HT-1080; assay: Induction of apoptosis in human HT1080 cells assessed as increase in caspase-3 activity at 4 uM relative to control; format: functional
[19] = tested on: HT-1080; assay: Cell cycle arrest in human HT1080 cells assessed as accumulation at G2/M phase at 10 uM after 72 hrs using propidium iodide staining by FACS analysis relative to control; format: functional
[20] = tested on: HT-1080; assay: Cell cycle arrest in human HT1080 cells assessed as accumulation at G2/M phase at 4 uM after 72 hrs using propidium iodide staining by FACS analysis relative to control; format: functional
[21] = tested on: HT-1080; assay: Cell cycle arrest in human HT1080 cells assessed as accumulation at G2/M phase at 1 uM after 72 hrs using propidium iodide staining by FACS analysis relative to control; format: functional
[22] = tested on: HT-1080; assay: Cell cycle arrest in human HT1080 cells assessed as accumulation at S phase at 10 uM after 72 hrs using propidium iodide staining by FACS analysis relative to control; format: functional
[23] = tested on: HT-1080; assay: Cell cycle arrest in human HT1080 cells assessed as accumulation at S phase at 4 uM after 72 hrs using propidium iodide staining by FACS analysis relative to control; format: functional
[24] = tested on: HT-1080; assay: Cell cycle arrest in human HT1080 cells assessed as accumulation at S phase at 1 uM after 72 hrs using propidium iodide staining by FACS analysis relative to control; format: functional
[25] = tested on: HT-1080; assay: Cell cycle arrest in human HT1080 cells assessed as accumulation at G0/G1 phase at 10 uM after 72 hrs using propidium iodide staining by FACS analysis relative to control; format: functional
[26] = tested on: HT-1080; assay: Cell cycle arrest in human HT1080 cells assessed as accumulation at G0/G1 phase at 4 uM after 72 hrs using propidium iodide staining by FACS analysis relative to control; format: functional
[27] = tested on: HT-1080; assay: Cell cycle arrest in human HT1080 cells assessed as accumulation at G0/G1 phase at 1 uM after 72 hrs using propidium iodide staining by FACS analysis relative to control; format: functional
[28] = tested on: HT-1080; assay: Cytotoxicity against human HT1080 cells assessed as growth inhibition after 72 hrs by trypan blue dye exclusion assay; format: functional, cell-based; settings: HT-1080, 72 h
[29] = tested on: HT-1080; assay: Induction of RECK protein expression in human HT1080 cells at 1 uM after 24 hrs by electrophoresis analysis relative to control; format: functional
[30] = tested on: HT-1080; assay: Induction of RECK protein expression in human HT1080 cells at 4 uM after 24 hrs by electrophoresis analysis relative to control; format: functional
[31] = tested on: HT-1080; assay: Induction of RECK protein expression in human HT1080 cells after 24 hrs by electrophoresis analysis relative to control; format: functional, cell-based
[32] = tested on: HT-1080; assay: Cytotoxicity against human HT1080 cells assessed as growth inhibition at 4 to 10 uM after 72 hrs by trypan blue dye exclusion assay relative to control; format: functional
[33] = tested on: HT-1080; assay: Antiinvasive activity in human HT1080 cells at 50 uM; format: functional
[34] = tested on: HT-1080; assay: as §1; format: cell-based; settings: ht-1080, 24 h, 1 µM

Chain of Matrix metalloproteinase-9 (Homo sapiens) (P14780 whole entry): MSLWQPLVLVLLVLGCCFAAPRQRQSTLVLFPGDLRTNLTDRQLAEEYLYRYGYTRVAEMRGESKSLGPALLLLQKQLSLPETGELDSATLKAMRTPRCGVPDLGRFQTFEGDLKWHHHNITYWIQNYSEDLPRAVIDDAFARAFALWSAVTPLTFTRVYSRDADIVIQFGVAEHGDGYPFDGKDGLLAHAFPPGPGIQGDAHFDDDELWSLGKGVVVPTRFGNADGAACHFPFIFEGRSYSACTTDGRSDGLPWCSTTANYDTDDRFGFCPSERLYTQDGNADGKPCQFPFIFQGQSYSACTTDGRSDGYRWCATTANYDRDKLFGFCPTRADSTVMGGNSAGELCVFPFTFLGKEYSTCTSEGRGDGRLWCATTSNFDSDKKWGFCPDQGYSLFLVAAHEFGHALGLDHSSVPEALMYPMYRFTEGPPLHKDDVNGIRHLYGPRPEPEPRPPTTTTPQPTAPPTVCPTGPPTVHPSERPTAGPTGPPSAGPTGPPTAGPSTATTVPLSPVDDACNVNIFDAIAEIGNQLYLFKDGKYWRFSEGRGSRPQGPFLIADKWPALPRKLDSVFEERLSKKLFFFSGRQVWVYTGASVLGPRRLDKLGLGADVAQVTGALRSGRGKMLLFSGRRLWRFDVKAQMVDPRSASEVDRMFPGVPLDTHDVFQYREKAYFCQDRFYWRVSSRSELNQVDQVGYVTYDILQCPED
Chain of 72 kDa type IV collagenase (Homo sapiens) (P08253 110-660 limits assumed): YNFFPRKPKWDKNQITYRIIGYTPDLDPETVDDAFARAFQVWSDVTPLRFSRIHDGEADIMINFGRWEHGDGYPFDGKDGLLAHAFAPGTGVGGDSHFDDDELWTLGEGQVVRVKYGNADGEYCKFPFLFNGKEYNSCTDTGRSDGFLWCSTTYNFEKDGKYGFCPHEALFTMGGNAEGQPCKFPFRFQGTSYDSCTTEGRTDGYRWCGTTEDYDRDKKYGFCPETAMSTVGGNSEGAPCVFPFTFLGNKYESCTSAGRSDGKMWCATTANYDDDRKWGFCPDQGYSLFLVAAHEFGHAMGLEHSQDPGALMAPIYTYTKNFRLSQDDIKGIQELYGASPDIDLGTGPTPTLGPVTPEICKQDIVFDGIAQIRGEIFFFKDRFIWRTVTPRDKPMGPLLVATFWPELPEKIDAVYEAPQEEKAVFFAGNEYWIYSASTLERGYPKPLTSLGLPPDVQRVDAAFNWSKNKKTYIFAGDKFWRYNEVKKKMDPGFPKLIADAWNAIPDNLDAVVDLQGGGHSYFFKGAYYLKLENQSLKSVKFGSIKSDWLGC

Compound: COc1cc(C2Oc3cc([C@H]4Oc5cc(O)cc(O)c5C(=O)[C@@H]4O)ccc3OC2CO)ccc1O (some centres undefined) [SILIBININ]
IC50 [1]: 400 µM

inhibition [3]: inactive
inhibition [4]: inactive
Compound: CC1=C(/C=C/C(C)=C/C=C/C(C)=C/C(=O)Nc2ccc(O)cc2)C(C)(C)CCC1 [FENRETINIDE]
Activity [2]: inactive
Activity [5]: 20%
inhibition at 24 h, 1 µM [6]: 4%
Activity [7]: inactive
Activity [8]: inactive

Compound: C[C@@H](N)c1ccc(C(=O)Nc2ccncc2)cc1.Cl
Activity [9]: 50%

IC50 [11]: 2.4 µM
IC50 [12]: > 10 µM
IC50 [13]: 0.9 µM
IC50 [14]: 0.7 µM
inhibition [3]: inactive
inhibition [4]: 50%
Compound: CCCCCCCCCCCCNc1ccc(O)cc1
IC50 [10]: 2 µM
Activity [2]: 60%
Activity [11]: Dose-dependent effect
Activity [12]: Dose-dependent effect
Activity [13]: Dose-dependent effect
Activity [14]: Dose-dependent effect
Activity [5]: 80%
inhibition at 24 h, 1 µM [6]: 8%
Activity [15]: inactive
fold change (FC) [16]: 4.8
Activity [17]: Dose-dependent effect
fold change (FC) [18]: 3.2
Activity [19]: 30.3%
Activity [20]: 30.4%
Activity [21]: 28.2%
Activity [22]: 19.1%
Activity [23]: 11%
Activity [24]: 8.7%
Activity [25]: 50.6%
Activity [26]: 58.5%
Activity [27]: 63.1%
IC50 [28]: 1 µM
Activity [7]: inactive
Activity [8]: 162%
Activity [29]: 140%
Activity [30]: 175%
Activity [31]: Dose-dependent effect
growth inhibition (GI) [32]: 77%

Compound: O=S(=O)(c1cccc2cnccc12)N1CCCNCC1 [FASUDIL]
Activity [33]: 26%

Compound: COC(=O)[C@H](CCSC)NC(=O)c1ccc(CNCc2c[nH]cn2)cc1-c1ccccc1C
IC50 [1]: > 50 µM

Compound: O=S(=O)(c1cccc2c(O)nccc12)N1CCCNCC1 [HYDROXYFASUDIL]
Activity [33]: 50%

inhibition [3]: inactive
inhibition [4]: inactive
Compound: CC1=C(/C=C/C(C)=C/C=C/C(C)=C/C(=O)O)C(C)(C)CCC1 [TRETINOIN]
Activity [2]: inactive
Activity [5]: inactive
Activity [34]: Non-toxic
Activity [7]: inactive
Activity [8]: inactive

Compound: O=C(CCCCCCSc1ccc2ccccc2c1)NO
IC50 [1]: 3 µM

From ChEMBL document CHEMBL2417488, “Inhibitory effects of p-dodecylaminophenol on the invasiveness of human fibrosarcoma cell line HT1080” (Bioorg Med Chem, 2013)
